Data taken from patent US10864210B2, “Composition and combined medication method for treating enterovirus infection” (priority 2016, dated 2020).

Tests used:
Format in all cases: cell-based, Enterovirus 71
EV71 [1] = assay: Evaluation experiment for compounds: inhibition of EV71-induced CPE in RD cells (CellTiter-Glo); settings: single compound, 2-fold dilutions
Method: Itraconazole purchased from Sigma-Aldrich is dissolved in DMSO to a final concentration of 10 mM; suramin purchased from Bayer is dissolved in a medium containing 2% FBS to a final concentration of 50 mM; favipiravir purchased from Chembest is dissolved in DMSO to a final concentration of 400 mM; rupintrivir purchased from Santa Cruz is dissolved in DMSO to a final concentration of 2 mM; and GW5074 purchased from Sigma is dissolved in DMSO to a final concentration of 10 mM. To evaluate the inhibition of EV71-induced CPE activity by five compounds, the inventors perform dose dependent experiments.
The raw data are input into an Excel sheet to calculate the signal-to-background ratio (S/B), the signal-to-noise ratio (S/N), Z factor, and the inhibition rate of the test compound against the virus. […] The antiviral activity of the compound CPE inhibition rate=(μcpd−μv)/(μc−μv)×100%, wherein μcpd represents the average signal intensity of the test compound; and the effect of the compound on the cell, cell survival rate=μcpd/μc×100%. The half maximum effect concentration (EC50) is a concentration that causes a 50% maximum effect. The half-cytotoxic concentration (CC50) refers to a concentration of the medicament that causes 50% cytotoxicity, which is expressed in this experiment as a 50% reduction in the fluorescence intensity of the experimental group compared with the control group.
(A) 2-fold dilution of itraconazole, rupintrivir, favipiravir, suramin, and GW5074 were separately added to RD cells, and virus or medium was added and cultured for 96 hours. The cell viability was measured by CellTiter-Glo kit. The inhibitory effects of […] compounds on EV71 and the toxic effects on cells were examined. (B) Virus and 2-fold dilution of itraconazole, rupintrivir, favipiravir, suramin, and GW5074 were separately added into RD cells. After 48 hours of culture, the supernatant was collected and the viral titer was determined by TCID50 method. The results were processed using Graphpad Prism5. The data in the figure were obtained from two independent parallel experiments, and the error bars represent the standard deviation of the two parallel experiments.

EV71 [2] = assay: Viral titer reduction experiment (single compound)
Method: (§1) RD cells are seeded in a 12-well plate with 3×10^5 cells/well, cultured overnight at 37° C. for 24 hours. Then EV71 virus solution with MOI=0.1 and 2-fold dilution of itraconazole, rupintrivir, favipiravir, suramin and GW5074 are added and cultured at 37° C. for 48 h. The supernatant is collected, frozen in a −80° C. refrigerator, and then determined for viral titer. To determine the resistance of the passaged virus to favipiravir, the inventors inoculate Vero cells in a 12-well plate, 3×10^5 cells/well and culture overnight at 37° C. After 24 hours, EV71 virus solution with MOI=0.1 is added and 300 μM and 600 μM favipiravir are separately added. After cultured at 37° C. for 48 hours, the supernatant is collected and frozen in a −80° C. refrigerator, and then the viral titer is measured.
EV71, itraconazole, and 0.5 μM or 1 μM of rupintrivir were simultaneously added to Vero cells, the virus was subcultured, and the supernatant was collected.

[3] = test system: EV71 containing 3D protein mutation; assay: Mutant virus resistance experiment based on cytopathic effect in Vero cells; settings: CPE-based
Method: To determine the resistance of the selected mutant virus and recombinant virus to the compound, the inventors conduct experiments based on cytopathic effects and viral titer reduction experiments. […] EV71 G082 strain is served as a control.
The supernatant from the 16th passage culture was collected and sequenced. EV71 containing 3D protein mutation was constructed by reverse genetics system. The viral titer was determined by plaque formation assay, the virus resistance to favipiravir was detected by viral titer reduction experiment. The experimental method was the same as the compound verification experiment. (B) The effects of itraconazole, rupintrivir, suramin and GW5074 on a virus containing 3D protein mutation were determined using an experiment based on cytopathic effect. The results were processed using Graphpad Prism5. The data in the figure were obtained from two independent parallel experiments, and the error bars represent the standard deviation of the two parallel experiments.

[4] = test system: EV71 having amino acid residue mutation at position 121 in the 3D protein; assay: Favipiravir resistance screening and viral titer reduction experiment in Vero cells; settings: viral titer reduction
Method: as §1
The present inventors conduct a passage experiment to screen a favipiravir resistant strain. 3×10^5 Vero cells are seeded in a 12-well plate, cultured overnight at 37° C. […] After 16 continuous passages, the titer of the virus in the supernatant, the resistance to the compound, and sequencing are determined. […]
The supernatant from the 16th passage culture was collected and sequenced. […] The viral titer was determined by plaque formation assay, the virus resistance to favipiravir was detected by viral titer reduction experiment. […]

| SMILES | inhibition of EV71 infection of cells (EV71 [1]) | removal of viruses in the cell culture by single compound (EV71 [2]) | cross-resistance of favipiravir-resistant mutant virus compared with wild type virus (G082) [3] | resistance of EV71 with position 121 3D protein mutation to the compound [4] |
| --- | --- | --- | --- | --- |
| CCC(C)n1ncn(-c2ccc(N3CCN(c4ccc(OCC5COC(Cn6cncn6)(c6ccc(Cl)cc6Cl)O5)cc4)CC3)cc2)c1=O (centres unmarked) [itraconazole] | effective in inhibiting EV71 infection of cells in a dose-dependent manner | could not remove all the viruses in the cell culture | no cross-resistance was found | – |
| NC(=O)c1nc(F)cnc1O [favipiravir] | effective in inhibiting EV71 infection of cells in a dose-dependent manner | – | – | resistant |
| CCOC(=O)/C=C/[C@H](C[C@@H]1CCNC1=O)NC(=O)[C@@H](CC(=O)[C@@H](NC(=O)c1cc(C)on1)C(C)C)Cc1ccc(F)cc1 [rupintrivir] | effective in inhibiting EV71 infection of cells in a dose-dependent manner | – | no cross-resistance was found | – |
| Cc1ccc(C(=O)Nc2ccc(S(=O)(=O)O)c3cc(S(=O)(=O)O)cc(S(=O)(=O)O)c23)cc1NC(=O)c1cccc(NC(=O)Nc2cccc(C(=O)Nc3cc(C(=O)Nc4ccc(S(=O)(=O)O)c5cc(S(=O)(=O)O)cc(S(=O)(=O)O)c45)ccc3C)c2)c1 [suramin] | effective in inhibiting EV71 infection of cells in a dose-dependent manner | – | no cross-resistance was found | – |
| O=C1Nc2ccc(I)cc2/C1=C/c1cc(Br)c(O)c(Br)c1 [GW5074] | effective in inhibiting EV71 infection of cells in a dose-dependent manner | – | no cross-resistance was found | – |
